Results published in PMC9322761, “Design, Synthesis and Biological Characterization of Histone Deacetylase 8 (HDAC8) Proteolysis Targeting Chimeras (PROTACs) with Anti-Neuroblastoma Activity” (International Journal of Molecular Sciences, 2022).

Tests used:
[1] = biological target: HDAC1 (Homo sapiens, UniProt Q13547); assay: HDAC1 degradation in SK-N-BE(2)-C cells (Western blot); settings: 6 h, up to 10 µM
Procedure: Total HDAC6, total HDAC1, total HDAC8, and acetyl-histone H4 expression levels, were assessed by Western blot. Total GAPDH protein levels served as a loading control (LC). * unspecific bands obtained through reprobing of the membrane.

[2] = Non-enzymatic stability in assay medium (HPLC); settings: 37 °C, 10 µM, pH7.4
Procedure: Non-enzymatic stability of selected final compounds was determined using 10 µM concentration of the tested PROTACs in one of the following assay media; Dulbecco’s modified Eagle medium (DMEM) (50%)/dimethylsulfoxid (10%)/acetonitrile (40%) or DMEM (50%)/dimethylsulfoxid (10%)/methanol (40%) mixture at pH7.4. The formed solution mixtures were incubated for 0, 6, 12, and 24 h at 37 °C. Analyte decomposition was monitored by HPLC using XTerra RP18 column (3.5 mm, 3.9 mm × 100 mm) from the manufacturer Waters (Milford, MA, USA) and two LC-10AD pumps, a SPD-M10A VP PDA detector, and a SIL-HT autosampler, all from the manufacturer Shimadzu (Kyoto, Japan).

[3] = biological target: T1, HDAC6 (Homo sapiens, UniProt Q9UBN7); assay: HDAC6 degradation in SK-N-BE(2)-C cells (Western blot); settings: 6 h, up to 10 µM
T1 sequence (Q9UBN7 1-1215): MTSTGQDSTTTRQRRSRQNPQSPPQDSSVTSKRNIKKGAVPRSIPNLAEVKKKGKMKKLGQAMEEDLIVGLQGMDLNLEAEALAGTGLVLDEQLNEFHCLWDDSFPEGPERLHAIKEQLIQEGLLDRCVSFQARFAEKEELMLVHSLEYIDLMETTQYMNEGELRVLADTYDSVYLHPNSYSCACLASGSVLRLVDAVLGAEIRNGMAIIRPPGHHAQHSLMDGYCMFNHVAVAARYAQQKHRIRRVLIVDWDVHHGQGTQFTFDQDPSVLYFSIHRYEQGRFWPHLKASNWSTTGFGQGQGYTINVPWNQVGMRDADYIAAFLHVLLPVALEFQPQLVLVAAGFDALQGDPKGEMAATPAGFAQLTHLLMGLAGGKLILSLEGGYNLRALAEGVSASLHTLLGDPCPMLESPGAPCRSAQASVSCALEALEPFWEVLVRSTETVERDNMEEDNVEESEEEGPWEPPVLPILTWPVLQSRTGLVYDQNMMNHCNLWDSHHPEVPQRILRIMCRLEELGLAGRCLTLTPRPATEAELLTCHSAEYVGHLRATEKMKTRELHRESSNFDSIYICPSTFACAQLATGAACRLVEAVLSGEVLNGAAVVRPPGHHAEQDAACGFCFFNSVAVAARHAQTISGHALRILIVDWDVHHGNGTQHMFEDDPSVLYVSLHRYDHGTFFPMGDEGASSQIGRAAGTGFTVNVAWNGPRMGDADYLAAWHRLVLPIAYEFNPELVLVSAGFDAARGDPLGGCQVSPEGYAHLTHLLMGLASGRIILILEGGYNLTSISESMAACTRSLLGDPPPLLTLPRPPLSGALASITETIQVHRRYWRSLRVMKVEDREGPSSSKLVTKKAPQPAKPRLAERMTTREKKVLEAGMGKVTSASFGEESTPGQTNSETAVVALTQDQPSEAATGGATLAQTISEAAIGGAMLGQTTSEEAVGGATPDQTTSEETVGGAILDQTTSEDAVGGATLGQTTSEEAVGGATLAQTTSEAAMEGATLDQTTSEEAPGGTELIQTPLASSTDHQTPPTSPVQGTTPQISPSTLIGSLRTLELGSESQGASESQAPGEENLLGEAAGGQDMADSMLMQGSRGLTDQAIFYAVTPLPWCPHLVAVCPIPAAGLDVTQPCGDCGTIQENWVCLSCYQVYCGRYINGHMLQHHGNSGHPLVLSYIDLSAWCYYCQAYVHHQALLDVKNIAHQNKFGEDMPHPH
Procedure: Figure 6 (A) SK-N-BE(2)-C neuroblastoma cells were treated for indicated time points with 10 µM of PROTACs. Degradation of HDAC8 and acetylation of HDAC8 target was analyzed via Western blot. […] Acetylation of HDAC8 target SMC3 and HDAC6 target tubulin, as well as total HDAC8 levels, were assessed by Western blot. Quantified ac-SMC3 or ac-tubulin expression, respectively, was normalized to the respective tubulin loading control and to the solvent control (DMSO). This quantification is reflected by the numbers below each blot. […] Total HDAC6, total HDAC1, total HDAC8, and acetyl-histone H4 expression levels, were assessed by Western blot. Total GAPDH protein levels served as a loading control (LC). * unspecific bands obtained through reprobing of the membrane.
HDAC6 degradation and tubulin hyperacetylation by PROTACs and control compounds
Left: SK-N-BE(2)-C neuroblastoma cells were treated for 6 h with indicated PROTACs (10 µM
each). Total HDAC6, acetyl-tubulin and total tubulin (LC #1: loading control #1) expression levels,
were assessed by western blot. Total GAPDH protein levels served as a second loading control
(LC #2). Right: presentation of quantified acetyl-tubulin levels, normalized to the DMSO control

[4] = system: acetylated SMC3; assay: Acetylation of HDAC8 substrate SMC3 in SK-N-BE(2)-C cells (Western blot); type: cell-based, human; settings: 10 µM
Procedure: To test the degradation of HDAC8 with the developed PROTACs, we selected the most promising compounds obtained from the cellular neuroblastoma testing; namely CRBN_1b, CRBN_1d, CRBN_1e, HyT_1m, and HyT_1p. Whole cell lysates from treated SK-N-BE(2)-C neuroblastoma cells were taken and the protein levels for HDAC8 and the acetylation of its substrate SMC3 were determined (Figure 6). As a control for HDAC6, we also assessed acetylation levels of α-tubulin. […]. A clear dose-dependent degradation of HDAC8 by PROTAC CRBN_1e was observed (Figure 6C). After 48 h, the HDAC8 protein level was back to baseline, presumably due to de novo protein synthesis. […]. Western blot analysis was performed as described previously (Kolbinger et al.). […]
Figure 6 (A) SK-N-BE(2)-C neuroblastoma cells were treated for indicated time points with 10 µM of PROTACs. Degradation of HDAC8 and acetylation of HDAC8 target was analyzed via Western blot. […] Acetylation of HDAC8 target SMC3 and HDAC6 target tubulin, as well as total HDAC8 levels, were assessed by Western blot. Quantified ac-SMC3 or ac-tubulin expression, respectively, was normalized to the respective tubulin loading control and to the solvent control (DMSO). This quantification is reflected by the numbers below each blot. […] Total HDAC6, total HDAC1, total HDAC8, and acetyl-histone H4 expression levels, were assessed by Western blot. […]

Sequence of HDAC1 (Q13547 whole entry): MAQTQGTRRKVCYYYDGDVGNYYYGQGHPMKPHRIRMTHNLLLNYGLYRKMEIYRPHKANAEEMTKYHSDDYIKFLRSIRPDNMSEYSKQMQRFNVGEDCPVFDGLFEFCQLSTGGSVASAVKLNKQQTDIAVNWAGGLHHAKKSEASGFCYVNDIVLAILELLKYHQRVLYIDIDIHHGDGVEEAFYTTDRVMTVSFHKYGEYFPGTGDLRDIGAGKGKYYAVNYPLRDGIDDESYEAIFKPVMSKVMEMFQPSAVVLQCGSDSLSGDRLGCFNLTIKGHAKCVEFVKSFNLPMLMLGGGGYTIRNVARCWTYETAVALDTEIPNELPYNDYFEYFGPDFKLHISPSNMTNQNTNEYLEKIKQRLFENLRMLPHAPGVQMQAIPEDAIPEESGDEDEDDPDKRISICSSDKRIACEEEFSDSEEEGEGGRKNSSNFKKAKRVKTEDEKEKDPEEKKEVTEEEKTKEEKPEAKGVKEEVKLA

Row | SMILES | HDAC1 degradation [1] | Non-enzymatic stability, compound remaining ([2]; 6 h) | Non-enzymatic stability, compound remaining ([2]; 24 h) | HDAC6 degradation [3] | Hyperacetylation of HDAC8 substrate SMC3 [4]
1 | COc1ccc(C(=O)NO)cc1NC(=O)c1ccc(NC(=O)CCCCCCCNc2cccc3c2C(=O)N(C2CCC(=O)NC2=O)C3=O)cc1 (centres unmarked) [CRBN_1b] | do not degrade | 100.0% | 91.6% | do not degrade | –
2 | COC(=O)c1ccc(C)c(NCc2ccc(OCc3cn(CCCCCC(=O)Nc4cccc5c4C(=O)N(C4CCC(=O)NC4=O)C5=O)nn3)cc2)c1 (centres unmarked) [33a] | – | – | – | – | did not show hyperacetylation
